Data taken from patent US10920265B2, “Compounds and methods for detection of enzymes that remove methyl succinyl groups from epsilon-amino lysine moieties” (Enzo Life Sciences, Inc., priority 2011, dated 2021).
Where “and” joins values, the source holds several entries; their conditions need not be identical. Equal values may be shown once. *: point of attachment. AMC = Cc1cc(=O)oc2cc(N*)ccc12

What was measured:
Assay in all cases: HDAC activity with fluorogenic lysyl substrates
Type in all cases: biochemical
Settings in all cases: 50 μM substrate
HDAC3 = target: T1, HDAC3 (Homo sapiens, UniProt O15379)
T1 construct: purchased ENZO Life Sciences BML-SE507
In short: (§1)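 Kit-based fluorogenic assay at 37 °C using trypsin-developed lysyl-AMC substrates bearing acetyl, succinyl or trifluoroacetyl groups. Enzyme sources were human recombinant HDACs and SIRTs, HDAC3/NCOR1, HeLa nuclear extract, or NP-40 lysate of HeLa S3 cells in 50 mM Tris/HCl pH 8.0.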

HDAC9 = target: T2, HDAC9 (Homo sapiens, UniProt Q9UKV0)
T2 construct: made in house; host or cells: E. coli
In short: as §1

HDAC7 = target: T3, HDAC7 (Homo sapiens, UniProt Q8WUI4)
T3 construct: made in house; host or cells: E. coli
T3 sequence (Q8WUI4 483-903): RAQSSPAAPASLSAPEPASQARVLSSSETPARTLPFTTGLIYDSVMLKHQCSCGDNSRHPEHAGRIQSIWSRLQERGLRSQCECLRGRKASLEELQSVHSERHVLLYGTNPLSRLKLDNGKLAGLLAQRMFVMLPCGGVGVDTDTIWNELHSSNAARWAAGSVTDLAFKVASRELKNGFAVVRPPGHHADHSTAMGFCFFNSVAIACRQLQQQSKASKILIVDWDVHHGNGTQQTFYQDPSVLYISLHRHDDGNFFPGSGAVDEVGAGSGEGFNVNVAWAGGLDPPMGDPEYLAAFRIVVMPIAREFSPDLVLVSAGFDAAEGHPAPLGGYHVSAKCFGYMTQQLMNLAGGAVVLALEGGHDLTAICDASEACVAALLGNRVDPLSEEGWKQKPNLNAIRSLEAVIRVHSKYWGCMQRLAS
In short: as §1

HDAC3/NCOR1 Complex = target: T4, HDAC3/NCOR1 Complex (Homo sapiens, UniProt O15379)
T4 construct: purchased ENZO Life Sciences BML-SE515
In short: as §1

HDAC1 = target: T5, HDAC1 (Homo sapiens, UniProt Q13547)
T5 construct: purchased ENZO Life Sciences BML-SE456
In short: as §1

T5 sequence (Q13547 whole entry): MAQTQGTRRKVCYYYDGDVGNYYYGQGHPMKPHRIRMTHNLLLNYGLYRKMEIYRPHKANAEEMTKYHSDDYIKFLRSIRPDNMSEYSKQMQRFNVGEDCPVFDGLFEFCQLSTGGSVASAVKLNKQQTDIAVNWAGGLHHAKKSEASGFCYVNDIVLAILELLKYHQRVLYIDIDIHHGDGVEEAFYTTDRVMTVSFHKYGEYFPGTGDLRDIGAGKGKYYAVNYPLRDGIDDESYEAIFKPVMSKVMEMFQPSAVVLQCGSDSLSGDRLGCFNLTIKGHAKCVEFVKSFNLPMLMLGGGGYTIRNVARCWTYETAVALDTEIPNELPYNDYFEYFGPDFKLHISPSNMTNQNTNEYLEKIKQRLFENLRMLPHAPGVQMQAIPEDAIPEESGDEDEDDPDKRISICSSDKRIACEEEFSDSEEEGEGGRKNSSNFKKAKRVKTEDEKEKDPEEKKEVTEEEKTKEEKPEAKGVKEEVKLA
T4 sequence (O15379 whole entry): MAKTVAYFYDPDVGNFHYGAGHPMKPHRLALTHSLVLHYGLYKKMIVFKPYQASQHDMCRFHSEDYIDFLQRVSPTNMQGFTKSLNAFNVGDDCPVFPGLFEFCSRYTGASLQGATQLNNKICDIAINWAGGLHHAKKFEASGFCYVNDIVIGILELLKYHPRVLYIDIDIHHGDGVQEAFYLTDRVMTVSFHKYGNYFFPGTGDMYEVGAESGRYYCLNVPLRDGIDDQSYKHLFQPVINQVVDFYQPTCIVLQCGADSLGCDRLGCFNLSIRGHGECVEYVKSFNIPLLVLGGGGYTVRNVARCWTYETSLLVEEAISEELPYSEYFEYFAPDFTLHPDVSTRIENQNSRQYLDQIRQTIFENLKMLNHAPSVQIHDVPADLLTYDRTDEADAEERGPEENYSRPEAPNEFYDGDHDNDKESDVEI
T4 sequence (O75376 395-489 partner limits assumed): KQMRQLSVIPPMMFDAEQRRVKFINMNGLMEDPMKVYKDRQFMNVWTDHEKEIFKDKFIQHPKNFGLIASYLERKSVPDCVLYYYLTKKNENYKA
T1 sequence (O15379 whole entry): as the sequence (O15379 whole entry) above
T2 sequence (Q9UKV0 644-1066 isoform Q9UKV0-5): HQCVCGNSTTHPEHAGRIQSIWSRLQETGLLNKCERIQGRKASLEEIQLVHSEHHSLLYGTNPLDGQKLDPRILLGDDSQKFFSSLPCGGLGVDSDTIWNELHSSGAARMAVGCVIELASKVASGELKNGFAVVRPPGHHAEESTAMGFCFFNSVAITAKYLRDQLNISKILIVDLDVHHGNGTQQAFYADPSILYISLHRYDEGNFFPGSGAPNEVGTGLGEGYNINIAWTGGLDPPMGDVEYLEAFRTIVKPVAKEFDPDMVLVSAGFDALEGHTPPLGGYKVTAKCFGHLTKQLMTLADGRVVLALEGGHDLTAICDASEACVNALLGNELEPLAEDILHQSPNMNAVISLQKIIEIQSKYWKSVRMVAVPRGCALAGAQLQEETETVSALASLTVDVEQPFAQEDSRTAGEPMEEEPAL

| Activity (HDAC3) [pmol/min/µg] | Activity (pmol/min/μg) (HDAC9) | Activity (pmol/min/μg) (HDAC7) | Activity (HDAC3/NCOR1 Complex) [pmol/min/µg] | Activity (HDAC1) [pmol/min/µg] | Activity (HDAC3; listed as Ac-Lys(Acetyl)-AMC) | Activity (HDAC9) [pmol/min/µg] | Activity (pmol/min/μg) (HDAC3/NCOR1 Complex) | Activity (pmol/min/μg) (HDAC1) | Activity (pmol/min/μg) (HDAC3) | Molecule |
| --- | --- | --- | --- | --- | --- | --- | --- | --- | --- | --- |
| 0.963 | Undetectable | Undetectable | 79.023 | 1.651 |  |  |  |  |  | CCCCCCCCCCCCCC(=O)NCCCC[C@H](NC(C)=O)C(=O)Nc1ccc2c(C)cc(=O)oc2c1 [Compound 4, N—(N^α-acetyl-L-Lysine(N^ε-myristoyl))-AMC] |
|  |  | Undetectable | 668 | 14.8 | 3.8 pmol/min/µg and 3.80 pmol/min/µg | 0.027 |  |  |  | CC(=O)NCCCCC(NC(C)=O)C(=O)Nc1ccc2c(C)cc(=O)oc2c1 (stereo not shown) [Ac-Lys(Ac.)-AMC, Ac-Lys(ε-acetyl)-AMC, reference compound] |
|  |  |  |  |  |  |  | Ac-RHKK(Ac)-AMC/687 pmol/min/μg | Ac-RHKK(Ac)-AMC/21 pmol/min/μg |  | Ac-Arg-His-Lys-Lys(ε-acetyl)-AMC (Ac-RHKK(Ac)-{AMC}; SMILES CC(=O)NCCCC[C@H](NC(=O)[C@H](CCCCN)NC(=O)[C@H](Cc1c[nH]cn1)NC(=O)[C@H](CCCNC(=N)N)NC(C)=O)C(=O)Nc1ccc2c(C)cc(=O)oc2c1) [Ac-RHKK(Ac)-AMC, p53 peptide fluorogenic deacetylase substrate, Cat. # BML-KI177, reference compound] |
|  | Undetectable | Undetectable | 0.40 |  |  |  |  | Undetectable | Undetectable | CC(=O)N[C@@H](CCCCNC(=O)CCC(=O)O)C(=O)Nc1ccc2c(C)cc(=O)oc2c1 [Compound 1, N—(N^α-acetyl-L-Lysine(N^ε-succinyl))-AMC] |
| 0.431 |  | Undetectable | 53.750 | 0.798 |  | 0.135 |  |  |  | COC(=O)CCC(=O)NCCCC[C@H](NC(C)=O)C(=O)Nc1ccc2c(C)cc(=O)oc2c1 [Compound 5, N—(N^α-acetyl-L-Lysine(N^ε-methyl succinyl))-AMC] |
